Converted amounts (≈) assume the structure as drawn. Read-outs that look alike come from different tables or passages of the source. Square brackets hold non-standard residues; d marks the D form. Peptide text beside a SMILES is read from it.
How the values were obtained:
S. aureus USA300 = test: microbe, parasite or virus in culture; format: cell-based, Staphylococcus aureus
Outline: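 Broth microdilution: log-phase cultures in tryptic soy broth diluted to OD600 0.001, exposed to two-fold diluted peptides at 37° C overnight, growth read at 630 nm. Medium effects on S. aureus USA300 tested with up to 200 mM NaCl, 2 mM CaCl2, 5-10% human serum, mouse plasma, fluids or tissue homogenate supernatants.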

P. aeruginosa E411-17 = test: microbe, parasite or virus in culture; format: cell-based, Pseudomonas aeruginosa; conditions: E411-17; for MIC: read-out: MIC P. aeruginosa E411-17
Description: (§1) The bacterial strains used include the Gram-positive strains Staphylococcus aureus USA300 LAC, S. epidermidis 1457, and Bacillus subtilis 168, as well as the Gram-negative isolates Escherichia coli K12 and Acinetobacter baumannii B2367-12. Additional, drug resistance strains include Gram-positive Enterococcus faecium V286-17 (VRE) and S. aureus M838-17 (MRSA) and Gram-negative E. coli E423-17, E. coli E416-17 (ampC), and P. aeruginosa E411-17. Bacteria were cultivated in tryptic soy broth (TSB) (BD Bioscience, MD).
(§2) The antibacterial activity of peptides was evaluated using a standard broth microdilution protocol with minor modifications as described (Mishra, et al. (2012) J. Am. Chem. Soc., 134:12426-12429). In brief, logarithmic phase bacterial cultures (i.e., optical density at 600 nm≈0.5) were diluted to OD600 0.001 and partitioned into a 96-well polystyrene microplate at 90 μL per well. After treatment with 10 μL of peptide solutions two fold diluted to various concentrations, microplates were incubated at 37° C. overnight and read on a ChroMate® 4300 Microplate Reader at 630 nm (GMI, Ramsey, MN). […] To study the influence of medium conditions on the antimicrobial activity of peptides against S. aureus USA300, up to 200 mM sodium chloride (NaCl), 2 mM of calcium chloride, 5-10% of human serum, mouse plasma, fluid, or supernatants of tissue homogenates were included into the assays.
(§3) The bacterial strains used include the Gram-positive bacteria methicillin-resistant Staphylococcus aureus USA300, Enterococcus faecium V286-17 (VRE), S. aureus M838-17 (MRSA) and Gram-negative bacteria E. coli E423-17, E416-7 (ampC), P. aeruginosa E411-17, PA01, K. pneumoniae E406-17, ATCC13883, and A. baumannii B26-16. Bacteria were cultivated in tryptic soy broth (TSB) from BD Bioscience.
(§4) The antibacterial activity of peptides was evaluated using a standard broth microdilution protocol with minor modifications (Mishra, et al. (2017) Acta Biomater., 49:316-328). In brief, logarithmic phase bacterial cultures (i.e., optical density at 600 nm≈0.5) were diluted to 0.001 OD and aliquoted 90 μL per well into a 96-well polystyrene microplate. Added 10 μL peptides per well with various concentrations, plates were incubated at 37° C., overnight. Post incubation the plates are read at 630 nm using a ChroMate® Microplate Reader (GMI). […] To study the influence of medium conditions on the antimicrobial activity of peptides against S. aureus USA300 at different pHs (6.8, 7.2, and 8.0), 150 mM sodium chloride (NaCl), 5-10% of human serum, mouse plasma, and peritoneal fluid were included into the assays.

K. pneumoniae E406-17 = test: microbe, parasite or virus in culture; format: cell-based, Klebsiella pneumoniae; conditions: E406-17; for MIC: read-out: MIC K. pneumoniae E406-17
Protocol: as §2, §3, §4

A. baumannii B26-16 = test: microbe, parasite or virus in culture; format: cell-based, Acinetobacter baumannii; conditions: B26-16; read-out: MIC A. baumannii B26-16
Protocol: as §3, §4

in vivo = conditions: BALB/c, mouse, plasma, iv, 10 mg/kg
Protocol: The efficacy of the two peptides was also investigated in non-neutropenic mice against S. aureus USA300. A higher bacterial inoculum at 2×10^8 CFU per mouse was used. […] To evaluate the peptide pharmacokinetics (Chhonker, et al. (2018) Biomed. Chromatogr. e4389), the plasma clearance rate of horine after intravenous injection of 10 mg/kg into BALB/c mice was followed.

E. faecium V286-17 (VRE) = test: microbe, parasite or virus in culture; format: cell-based, Enterococcus faecium; conditions: V286-17 (VRE); for MIC: read-out: MIC E. faecium V286-17 (VRE)
Description: as §1, §2, §3, §4

E. coli E423-17 = test: microbe, parasite or virus in culture; format: cell-based, Escherichia coli; conditions: E423-17; read-out: MIC E. coli E423-17
Description: as §1, §2, §3, §4

S. aureus M838-17 (MRSA) = test: microbe, parasite or virus in culture; format: cell-based, Staphylococcus aureus; conditions: M838-17; for MIC: read-out: MIC S. aureus M838-17 (MRSA)
Outline: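 Peptides were serially diluted two-fold against bacteria grown in tryptic soy broth to log phase (OD600 ≈0.5), then seeded at OD600 0.001. Plates were held overnight at 37° C and read at 630 nm. USA300 was also tested at pH 6.8, 7.2 and 8.0, with 150 mM NaCl or 5-10% serum, plasma or peritoneal fluid.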

Hemolytic assay = format: cell-based, human; conditions: human, human red blood cells, 2% (v/v)
Outline: (§5)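 HL50 marks the peptide level lysing half of a 2% (v/v) suspension of washed human erythrocytes after 1 h at 37 °C. Released hemoglobin measured at 545 nm, scaled between PBS (0%) and Triton X-100 (2% or 1%; 100%). Selectivity index computed as HL50 over MIC.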

E. coli ATCC 25922 = format: cell-based, Escherichia coli; conditions: ATCC 25922
Outline: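 Peptides, serially diluted two-fold, were incubated overnight at 37 °C with E. coli ATCC 25922 from log-phase cultures adjusted to OD600 0.001. Turbidity at 630 nm served as the read-out in this broth microdilution format.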

K. pneumoniae ATCC 13883 = format: cell-based, Klebsiella pneumoniae; conditions: ATCC 13883
Outline: (§6)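 Broth microdilution in tryptic soy broth: log-phase cultures (OD600 ≈0.5) diluted to OD600 0.001, given two-fold peptide dilutions, incubated overnight at 37° C. Growth read at 630 nm.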

P. aeruginosa PAO1 = format: cell-based, Pseudomonas aeruginosa; conditions: PAO1
Outline: as §6

E. coli ampC E416-7 = format: cell-based, Escherichia coli; conditions: Table 7
Description: as §1, §2

[1] = test system: human red blood cells (hRBCs); test: Hemolytic assay; format: cell-based
Outline: as §5

[2] = USA300, read-out: MIC S. aureus USA300 (MRSA)

Row | Compound | MIC (S. aureus USA300; [2]) [µM] | MIC (P. aeruginosa E411-17) [µM] | MIC (K. pneumoniae E406-17) [µM] | MIC (A. baumannii B26-16) [µM] | MIC (E. faecium V286-17 (VRE)) [µM] | MIC (E. coli E423-17) [µM] | HC50 at 1 h (Hemolytic assay) [µM] | MIC (S. aureus M838-17 (MRSA)) [µM] | MIC (S. aureus USA300; 1 mM Ca2+) [µM] | MIC (S. aureus USA300; 2 mM Ca2+) [µM] | MIC (S. aureus USA300; 50 mM NaCl) [µM] | MIC (S. aureus USA300; 100 mM NaCl) [µM] | MIC (S. aureus USA300; No salts added, Table 6, by UV) [µM] | MIC (S. aureus USA300; USA300) [µM] | MIC SA (S. aureus USA300) (S. aureus USA300; USA300) [µM] | MIC (S. aureus USA300; USA300, pH 6.8) [µM] | MIC (S. aureus USA300; USA300, pH 7.4) [µM] | MIC (S. aureus USA300; USA300, pH 8) [µM] | MIC E. faecium V286-17 (VRE) (E. faecium V286-17 (VRE)) [µM] | MIC PA (P. aeruginosa PAO1) (P. aeruginosa PAO1) [µM] | also measured
1 | CC(C)C[C@@H](NC(=O)[C@@H](Cc1c[nH]c2ccccc12)NC(=O)[C@@H](Cc1c[nH]c2ccccc12)NC(=O)[C@H](N)Cc1c[nH]c2ccccc12)C(=O)N[C@H](CCCNC(=N)N)C(=O)N[C@H](CCCNC(=N)N)C(=O)N[C@H](CCCNC(=N)N)C(=O)N[C@H](Cc1c[nH]c2ccccc12)C(N)=O [D-horine] (H-[dW][dW][dW][dL][dR][dR][dR][dW]-NH2; N-terminus and C-terminus assumed) | 4 (≈ 5.37 µg/mL) | 32 (≈ 43 µg/mL) | >32 | >32 | 4 (≈ 5.37 µg/mL) | 16 (≈ 21.5 µg/mL) | – | – | – | – | – | – | – | – | – | – | – | – | – | – | level at 5 min (in vivo): 192 µg/mL; level at 24 h (in vivo): 0.17 µg/mL
2 | CC[C@H](C)[C@H](NC(=O)[C@H](CCCCN)NC(=O)[C@@H](N)CCCNC(=N)N)C(=O)N[C@@H](Cc1c[nH]c2ccccc12)C(=O)N[C@@H](Cc1c[nH]c2ccccc12)C(=O)N[C@@H](Cc1c[nH]c2ccccc12)C(=O)N[C@@H](Cc1c[nH]c2ccccc12)C(=O)N[C@@H](CC(C)C)C(N)=O [WW295, RKIWWWWL] (H-RKIWWWWL-NH2; N-terminus and C-terminus assumed) | 4 (≈ 5.09 µg/mL) | 32 (≈ 40.7 µg/mL) | 16 (≈ 20.4 µg/mL) | 8 (≈ 10.2 µg/mL) | 4 (≈ 5.09 µg/mL) | 8 (≈ 10.2 µg/mL) | 57 | – | – | – | – | – | – | – | – | – | – | – | – | – | MIC S. aureus M838-17 (S. aureus M838-17 (MRSA)): 6.2 to 12.5 µM; MIC S. aureus USA 300 (S. aureus USA300; USA300): 3.1 to 6.2 µM; MIC P. aeruginosa 411-17 (P. aeruginosa E411-17): >50 µM; MIC K. pneumonia 406-17 (K. pneumoniae E406-17): 12.5 µM (≈ 15.9 µg/mL); MIC E. coli ATCC 25922 (E. coli ATCC 25922): 6.2 µM (≈ 7.89 µg/mL); MIC K. pneumoniae ATCC 13883 (K. pneumoniae ATCC 13883): 3.1 to 6.2 µM
3 | CC(C)C[C@@H](NC(=O)[C@@H](CC(C)C)NC(=O)[C@@H](CCCCN)NC(=O)[C@@H](CC(C)C)NC(=O)CNC(=O)[C@@H](CC(C)C)NC(=O)[C@@H](CO)NC(=O)[C@@H](CC(C)C)NC(=O)[C@@H](CC(C)C)NC(=O)[C@@H](CC(C)C)NC(=O)[C@@H](CO)NC(=O)[C@@H](CC(C)C)NC(=O)CN)C(N)=O [DFT503d, GLSLLLSLGLKLL] (H-G[dL][dS][dL][dL][dL][dS][dL]G[dL][dK][dL][dL]-NH2; N-terminus and C-terminus assumed) | – | >50 | >50 | – | – | >50 | > 300 | 3.1 (≈ 4.15 µg/mL) | 1.56 (≈ 2.09 µg/mL) | 1.56 (≈ 2.09 µg/mL) | 1.56 (≈ 2.09 µg/mL) | 1.56 (≈ 2.09 µg/mL) | 1.56 | 3.1 (≈ 4.15 µg/mL) | 1.6 (≈ 2.14 µg/mL) | 3.1 (≈ 4.15 µg/mL) | 3.1 (≈ 4.15 µg/mL) | 1.6 (≈ 2.14 µg/mL) | 3.1 to 6.25 | >25 | MIC (S. aureus USA300; 200 mM NaCl): 1.56 µM (≈ 2.09 µg/mL); MIC EC (E. coli ATCC 25922) (E. coli ATCC 25922): >25 µM; MIC E. coli ampC E416-7 (E. coli ampC E416-7): >50 µM
4 | CC(C)C[C@H](NC(=O)[C@H](CC(C)C)NC(=O)[C@H](CCCCN)NC(=O)[C@H](CC(C)C)NC(=O)CNC(=O)[C@H](CC(C)C)NC(=O)[C@H](CO)NC(=O)[C@H](CC(C)C)NC(=O)[C@H](CC(C)C)NC(=O)[C@H](CC(C)C)NC(=O)[C@H](CO)NC(=O)[C@H](CC(C)C)NC(=O)CN)C(N)=O [DFT503, GLSLLLSLGLKLL] (H-GLSLLLSLGLKLL-NH2; N-terminus and C-terminus assumed) | – | >50 | >50 | – | – | >50 | > 300 | 3.1 (≈ 4.15 µg/mL) | 1.56 (≈ 2.09 µg/mL) | 1.56 (≈ 2.09 µg/mL) | 1.56 to 3.1 | 1.56 to 3.1 | 1.56 | 3.1 (≈ 4.15 µg/mL) | 1.6 (≈ 2.14 µg/mL) | 3.1 (≈ 4.15 µg/mL) | 3.1 to 6.2 | 3.1 (≈ 4.15 µg/mL) | 3.1 to 6.25 | >25 | HL50, peptide concentration for 50% hemolysis [1]: >300 µM; MIC EC (E. coli ATCC 25922) (E. coli ATCC 25922): >25 µM; MIC E. coli ampC E416-7 (E. coli ampC E416-7): >50 µM

Reference: patent US12173088B2, “Anti-microbial peptides” (priority 2018, dated 2024)
